Results as given in US20070081573A1, “Process for inhibiting biofilm formation on and/or removing biofilm from an enhanced tube” (Ashland Licensing and Intellectual Property LLC, priority 2005, published 2007).
Entries after “also recorded” stand apart in the source; their conditions may differ.

System: pseudomonas aerigenosa (ATCC 27853) biofilm
Assay: Biofouling test on enhanced tube and smooth tube in laboratory scale cooling tower system (modified P-U-L-S-E fouling monitor)
Format: cell-based

Structure (SMILES) | effect on inhibiting and/or removing biofilm | reduction of biofilm deposits (summary of test results)
[O][Cl+][O-] [chlorine dioxide] | effective; also recorded: more effective than stabilized bromine | reduce the deposit of biofilm
BrBr [bromine, reference compound] | little effect | not effective alone
